No end group written: not given here.
Legend:
rats [1] = assay: Porsolt test (Forced Swim Test) of depression; assay type: in vivo; set-up: Mean Immobility Time: unit not given beside the values; conditions: for maximum reduction in floating compared to saline vehicle / Mean Immobility Time: Example 2; for maximum reduction in floating compared to saline vehicle: P < .01
Description: For the evaluation of the antidepressant actions of GLYX-13, the effect of GLYX-13 in the Porsolt test of depression was examined in rats. Porsolt testing is the most commonly used test for assessment of depression in animal model. Porsolt testing, also known as Forced Swim Test, is based on a behavioral trait that is sensitive to changes in affective state. During this test, the animal is placed in a tank (18 cm diameter x 45 cm height) filled to 30 cm with 22-23°C water. After placing the animal in the tank, the amount of time for which the rat is immobile when it stops struggling is measured. Porsolt test is based on the fact that antidepressants increase the latency to immobility and decrease the time for which the rat is immobile. […] The interpretation of the Porsolt test is that the antidepressants reinstate active coping mechanisms and decrease the passive immobility evoked by stress.
In order to evaluate the effectiveness of GLYX-13 as antidepressant, three month old FBNF1 rats were separated into two groups of 9 animals. The first group of rats was intravenously injected with 10 mg/kg GLYX-13 and the second group of animals was intravenously injected with PBS vehicle (1 ml/kg) in a blind manner via chronic subdural femoral vein access ports. Both groups of animals were injected 10 to 15 minutes before the start of testing.
For Porsolt testing, animals were given a 15 minute pre-test habituation in the tank to induce learned helplessness on day one. Following this, on the subsequent day, the animals were injected with GLYX-13 or vehicle 10-15 minutes before being placed into the tank for a 5 minute test session. After placing the animals in the tank, the amount of time for which each animal is immobile when it stops struggling (Mean Immobility Time) was measured. Decrease in Mean Immobility Time is a measure of the effectiveness of the antidepressant.
A second experiment was performed in the same manner as Example 1, except that 2-3 month Sprague-Dawley rats were used, and treated with either intravenous (1, 3, 10, 32 mg / kg), subcutaneous (1,3, 10, 32, 56, 100 mg / kg) injections of GLYX-13 or saline vehicle (1 mg / ml) 15 (i.v.) or 20 (s.c.) min before the start of the final 5 min test session. Ketamine (10 mg / kg i.p.) was given 60 min before the start of testing (Garcia et al., (2008) Prog Neuropsychopharmacol Biol Psychiatry, 32, 140-144). Subcutaneous administration of 10 mg/kg ketamine followed by testing after 20 min post dosing produced severe dissociative side effects, as shown in Figure 3.
To determine whether GLYX-13 acts in an area of the brain that is clinically relevant for depression, GLYX-13 was administered to either the medial prefrontal cortex (MPFC), which is associated with mood and depression, or to the motor cortex (Fig. 4). Mean time spent immobile in the Porsolt test was determined for groups of 10 three-month old male Fisher Brown Norway F1 (FBNF1) rats pretreated with a single injection of GLYX-13 (1, 10 ug / side) or a single saline vehicle injection (0.5 ul / 1 min) bilaterally into the medial prefrontal cortex or motor cortex (dorsal control) in animals with surgically implanted chronic indwelling cannulae aimed at the MPFC. Microinjections were made 1 week after surgery, and Porsolt testing was conducted 20 min post injection. Animals received a single 15 min training swim session one day before dosing.
To determine whether the antidepressant effect of GLYX-13 was specific to the sequence of the GLXY-13 peptide, mean time (sec) spent floating in the Porsolt test was determined in groups of 12 three-month old Sprague Dawley rats administered with GLYX-13 (TPPT-NH2; 3 mg / kg, i.v. tail vein), a scrambled peptide ([…]; 3 mg / kg i.v. tail vein), or 0.9% saline vehicle (1 ml / kg, i.v. tail vein). Administration occurred 60 min before the 5 min. testing session. Animals received a 15 min. training swim session one day before dosing. […]

rats [2] = assay: Open field test of anxiety; assay type: in vivo; conditions: for increase in the amount of time spent in the center of the field compared to vehicle: Example 6, P < .05
Description: The purpose of this study was to evaluate action of GLYX-13 on anxiety. In order to gauge the effect of GLYX-13 in rats, the open field test of anxiety was conducted. The open field test is a widely used neophobic test of anxiety (see, Treit D, Fundytus M. Thigmotaxis as a test for anxiolytic activity in rats. Pharmachol Biochem Behav 1989;31:959-62.).
The open field area used for the open field test generally consists of an empty and bright square (or rectangular) arena, surrounded by walls. For the current study, an open field of 45 cm X 35 cm X 20 cm high was used. The rat was placed in the center of the arena and its behavior recorded over a predefined period of time (usually between 2 to 15 min). The open field test is based on the natural tendency of the rats to avoid open spaces. The open field test is based on the conflict between the innate anxiety that rats have of the central area of the open space versus their desire to explore new environments. When rats are in an anxious state, they have a natural tendency to stay near the walls. This natural tendency of the rats to stay close to the walls is called thigmotaxis. In this context, anxiety-related behavior is measured by the degree to which the rat avoids the center of the open field test. Determining the propensity of the rat to avoid the open field can be determined by measuring the number of center crosses made by the rats over a predefined interval of time, or by determining the amount of time the rat stays in the center of the field.
In order to evaluate the effectiveness of GLYX-13 as an anxiolytic, two groups of three month old FBNF1 rats were used. The first group was composed of 13 rats and the second group was composed of 11 rats. The first group of rats was intravenously injected with 10 mg/kg GLYX-13 and the second group of rats was intravenously injected with PBS vehicle (1 ml/kg) in a blind manner via chronic […] femoral vein access ports. Both groups of rats were injected 10 to 15 minutes before the start of testing. After GLYX-13 injections, both groups of rats were tested in the open field.
For the open field test, rats were habituated to the open field for 2 minutes each day for three consecutive days before the final 2 minute test session in which GLYX-13 or vehicle was administered. Open field activity was recorded by a video camera mounted above the open field area, and number of center crosses in the open field was measured.
A second experiment was performed in the same manner as Example 3, except that groups of 8-10 two- to three-month old male Sprague-Dawley rats pretreated with either intravenous (1, 3, 10, 32 mg / kg), subcutaneous (1, 3, 10, 32, 56, 100 mg / kg) injections of GLYX-13, ketamine (10 mg/kg i.p.) or saline vehicle (1 mg / ml) 15 min (i.v.), 20 (s.c.) or 60 (i.p.) min before the start of the 5 min test session. Each data point represents a group of 8-10 rats. The average (mean) amount of time animals spent in the center of the field was measured.
To evaluate whether the anti-depressive and anxiolytic effects of GLYX-13 would persist beyond a few hours, rats were tested in the Porsot test and the Open Field test, described above. […] Mean (± SEM) time (sec.) spent floating in the Porsolt test, time spent in the center compartment (sec.), and line crosses in the open field test were determined.

rats [3] = assay: 50-kHz ultrasonic vocalizations model of positive affect (rough-and-tumble play); assay type: in vivo; conditions: Example 8; 10 mg/kg i.v., 10-15 min before test; FBNF1 rats; Mean ± SEM; P < .01
Excerpt: To evaluate the hedonic effect of GLYX-13 in this study, the 50-kHz ultrasonic vocalizations model of positive affect was examined in rats (see, Burgdorf, J., Panksepp, J., Brudzynski, S.M., Kroes, R.A. & Moskal, J.R. (2008). The effect of selective breeding for differential rates of 50-kHz ultrasonic vocalizations on emotional behavior in rats. Devel. Psychobiology, 51, 34-46.).
As a part of the study, two groups of three month old FBNF1 rats were used. The first group was composed of 13 rats and the second group was composed of 11 rats. The first group of rats was intravenously injected with 10mg/kg GLYX-13 and the second group of rats was intravenously injected with PBS vehicle (1 ml/kg) in a blind manner via chronic […] femoral vein access ports. Both groups of rats were injected 10 to 15 minutes before the start of test.
For hedonic ultrasonic vocalizations (USVs), animals received 2 minutes of heterospecific RTP habituation before the final 2 minutes test session.

[4] = tested on: rat hippocampal organotypic cultures; assay: LTP / LTD in hippocampal organotypic cultures; assay type: cell-based; conditions: in vitro
rats [5] = assay: Porsolt test (Forced Swim Test) of depression; assay type: in vivo; set-up: Mean Immobility Time: unit not given beside the values
[6] = Example 7, 3 mg / kg i.v., Sprague-Dawley rats

L-threonyl-L-prolyl-L-prolyl-L-threonine amide (TPPT-NH2) [GLYX-13, NMDAR glycine-site partial agonist]
reduction in floating compared to PBS vehicle (rats [1]; Example 1, 10 mg/kg i.v., 10-15 min before test, three month old FBNF1 rats, Mean ± SEM, P < .0001): 56.4 ± 4.6% | maximum reduction in floating compared to saline vehicle (rats [1]; administered intravenously, Sprague-Dawley rats, Mean ± SEM): 50 ± 10% | maximum reduction in floating compared to saline vehicle (rats [1]; administered subcutaneously, Sprague-Dawley rats, Mean ± SEM): 43 ± 7% | Mean Immobility Time (rats [1]; i.v., dose 3 (mg/kg), 15 min before test, Sprague-Dawley rats): 66.14 ±27.53 | Mean Immobility Time (rats [1]; i.v., dose 10 (mg/kg), 15 min before test, Sprague-Dawley rats): 60.6 ±14.7 | Mean Immobility Time (rats [1]; i.v., dose 32 (mg/kg), 15 min before test, Sprague-Dawley rats): 87.19±17.85 | Mean Immobility Time (rats [1]; s.c., dose 1 (mg/kg), 20 min before test, Sprague-Dawley rats): 135.5 ±22.0 | Mean Immobility Time (rats [1]; s.c., dose 3 (mg/kg), 20 min before test, Sprague-Dawley rats): 100.2 ±15.7 | Mean Immobility Time (rats [1]; s.c., dose 10 (mg/kg), 20 min before test, Sprague-Dawley rats): 76.9 ±9.7 | Mean time spent immobile (rats [1]; Example 3, MPFC injection, dose 1 (ug / side), FBNF1 rats, Mean ± SEM): 53.46 ±10.65 | Mean time spent immobile (rats [1]; Example 3, MPFC injection, dose 10 (ug / side), FBNF1 rats, Mean ± SEM): 62.54±8.7 | reduction in floating compared to a saline control or to GLYX-13 injected into motor cortex (rats [1]; Example 3, injected bilaterally into the MPFC, FBNF1 rats, 20 min post injection, Mean ± SEM): 50 ± 5% | Mean time spent immobile (rats [1]; Example 3, injected into motor cortex (dorsal control), FBNF1 rats, Mean ± SEM): 113.7 ±13.1 | reduction in mean floating time compared to saline injection or scrambled peptide (rats [1]; Example 4, 3 mg / kg i.v. tail vein, 60 min before test, Sprague Dawley rats, Mean ± SEM): 70 ± 5% | reduction in mean floating time compared to saline control (rats [1]; Example 7, 3 mg / kg i.v., tested 96 hrs post dosing, Sprague-Dawley rats, mean ± SEM): 82% ± 2 | duration of antidepressant effects of a single administration (rats [1]; [6]): up to 4 days | onset of action (rats [1]; single dose, rats): within minutes | increase in center crosses compared to vehicle (rats [2]; Example 5, 10 mg/kg i.v., 10-15 min before test, FBNF1 rats, Mean ± SEM, P < .005): 172.6 ± 34.3% | increase in the amount of time spent in the center of the field compared to vehicle (rats [2]; intravenous administration, 15 min before test, Sprague-Dawley rats, Mean ± SEM): 42± 5% | increase in the amount of time spent in the center of the field compared to vehicle (rats [2]; subcutaneous administration, 20 min before test, Sprague-Dawley rats, Mean ± SEM): 36 ± 5% | increase in mean center time compared to saline control (rats [2]; Example 7, 3 mg / kg i.v., tested 120 hrs post dosing, Sprague-Dawley rats, mean ± SEM): 125% ± 5 | duration of anxiolytic effects of a single administration (rats [2]; [6]): up to 5 days | increase in rates of play-induced positive affective 50-kHz USVs compared to vehicle (rats [3]): 178.5 ± 48.3% | long-term depression (LTD) [4]: reducing | long-term potentiation (LTP) [4]: markedly elevate | Mean Immobility Time (rats [5]; Example 2, i.v., dose printed as 2, 15 min before test, Sprague-Dawley rats): 84.9 ±15.0 | Mean time spent immobile (rats [5]; Example 3, MPFC injection, dose 0.1 (ug / side), FBNF1 rats, Mean ± SEM): 108.77 ±12.34

Reference: patent EP2985032B1, “GLYX FOR USE IN THE TREATMENT OF ALZHEIMER'S DISEASE, PARKINSON'S DISEASE OR HUNTINGTON'S DISEASE” (Northwestern University, priority 2009, dated 2019)
